Test results published in US20020055171A1, “PREPARATION OF BIOLOGICALLY ACTIVE 3-METHYLENEOXINDOLE AND DEFINITION OF ITS APPLICATION IN STIMULATION OF PLANT GROWTH AND TISSUE REPAIR” (priority 1998, published 2002).

How the values were obtained:
[1] = test system: explants of Nicotiana tobaccum, Ficus benjamina, Kalanchoe, and Hosta; test: Stage II (multiplication) micropropagation of explants; assay type: cell-based
Description: MO produced an equivalent amount of growth at 10^−8 M and maximal growth at 10^−7 M.
Stage II and Stage III micropropagation of various plant species using IAA or MO as auxin source. Explants were placed in various concentrations of sterilized IAA or MO formulated in sterilized agar/mineral salts/kinnin media.

[2] = test system: cuttings from 12-day old bean plants; test: Root formation in bean cuttings planted in treated vermiculite; assay type: in vivo; conditions: for Average dry wt (grams) of root mass (14 days after treatment): 10 cuttings per treatment
Experimental: Legend to Table I. Ten (10) cuttings were used per treatment. Cuttings were obtained from 12-day old bean plants by excising each plant above the cotyledonery node. The cuttings were planted in vermiculite treated with various concentrations of the indicated compounds. Fourteen days after treatment, the portion of the cutting subtending the root mass was removed and dried for 48 hrs. at 50° C.

[3] = test system: Parenchyma tissue from heads of romaine lettuce; test: Formation of callus tissue in lettuce parenchyma sections; assay type: cell-based; conditions: 7 days at 26 degrees in the dark, average initial weight 0.04 g
Description: Note: Parenchyma tissue was obtained from heads of romaine lettuce. Cylinders measuring 5 mm in diameter and 20 mm in length were removed with a cork borer from the stalks of lettuce heads. The cylinders were sterilized in a 10% solution of commercial bleach (sodium hypochlorite). Three (3) mm wide circular sections were removed from the sterilized cylinders and 10 sections were placed in petri dishes containing various concentrations of auxins and MO formulated in sterilized agar/mineral salts/kinin media. The sections were incubated at 26 degrees in the dark for seven (7) days. At the end of the incubation period, the callus tissue in each treatment was weighed and the average weight of each section was recorded. The average initial weight of the sections was 0.04 g.

plants = test: Physiological (auxin) responses of plants compared with IAA; conditions: MO obtained from purified 3-Brox
Description: It is well known that at suitable concentrations, IAA can stimulate the growth of excised stem segments, promote root development in cuttings, and in combination with another group of plant growth substances known as kinins, can regenerate intact plants from single cells or meristematic tissue.

Hosta = test: Micropropagation of Hosta in Stage I, II and III media; assay type: cell-based
Description: Photographic evidence showing the comparative response of explants to IAA and MO in Stage II and Stage III growth media is available on request. A description of the photos is provided herein.

[4] = test system: cuttings from tomatoes, begonias, African violets, roses, soybeans and peas; test: Root formation in cuttings from various plants; assay type: in vivo
Description: Use of MO and its solutions prepared by novel methods for stimulation of root formation in plant cuttings and as replacement for IAA or synthetic auxins in plant tissue culture. […] Refer to FIG. 2 for typical response of cuttings to test compounds and Table I for data summary.

[5] = test system: explants of various plant species; test: Stage III (rooting) micropropagation of explants; assay type: cell-based; conditions: Stage III (rooting) medium
Description: Stage III micropropagation of various plant species using IAA or MO as auxin source. Explants were placed in various concentrations of sterilized IAA or MO formulated in sterilized agar/mineral salts/kinnin media

hardwood trees = test: Wound healing (callus formation) on sawed-off branches of hardwood trees, lanolin paste; assay type: in vivo; conditions: final concentration 10^−5M, compared with IAA
Description: Use of pure solutions of MO to stimulate healing in plants by aiding in the formation of callus tissue at the wound site. This would have the prophylactic effect of preventing infection in wounded trees. Application of MO in a solution, gel or lanolin paste preparation induces rapid formation of protective callus tissue. Refer to Table II for data summary. Large branches of hardwood trees were sawed off and treated with either IAA or MO prepared in lanolin paste.

[6] = Stage II (multiplication) medium

Compound | concentration required to produce maximal growth [1, 6] | Emergence of roots (No. of days after treatment) ([2]; 10^−4M) [days] | Average dry wt (grams) of root mass (14 days after treatment) ([2]; 10^−4M) [grams] | Emergence of roots (No. of days after treatment) ([2]; 10^−5M) [days] | Average dry wt (grams) of root mass (14 days after treatment) ([2]; 10^−5M) [grams] | Emergence of roots (No. of days after treatment) ([2]; 10^−6M) [days] | Average dry wt (grams) of root mass (14 days after treatment) ([2]; 10^−6M) [grams] | Weight in grams of Callus tissue ([3]; 10^−4 moles/L) [g] | Weight in grams of Callus tissue ([3]; 10^−5 moles/L) [g] | Weight in grams of Callus tissue ([3]; 10^−6 moles/L) [g] | Weight in grams of Callus tissue ([3]; 10^−7 moles/L) [g] | Weight in grams of Callus tissue ([3]; 10^−8 moles/L) [g] | also measured
O=C(O)Cc1c[nH]c2ccccc12 [IAA, Indole-3-acetic acid] | 10^−5 M | 7 | 8 | 7 | 10 | 9 | 7 | 0.08 | 0.25 | 1.2 | 0.80 | 0.40 | –
O=C(O)CCCc1c[nH]c2ccccc12 [IBA, indolebutyric acid] | – | 9 | 5 | – | 7 | 5 | 7 | 0.05 | 0.18 | 0.70 | 0.55 | 0.12 | –
C=C1C(=O)Nc2ccccc21 [MO, 3-methyleneoxindole] | 10^−7 M | – | – | – | – | 4 | 11 | 0.02 | 0.15 | 1.5 | 1.95 | 1.75 | concentration producing growth equivalent to IAA at its most effective concentration [1, 6]: 10^−8 M; fold more effective than IAA and the synthetic auxins ([1]; Stage II medium): 1,000 fold; Emergence of roots (No. of days after treatment) ([2]; 10^−7M): 4 days; Average dry wt (grams) of root mass (14 days after treatment) ([2]; 10^−7M): 13 grams; Emergence of roots (No. of days after treatment) ([2]; 10^−8M): 6 days; Average dry wt (grams) of root mass (14 days after treatment) ([2]; 10^−8M): 10 grams; fold as effective as IAA in eliciting physiological responses (plants): 100-1000 fold; effectiveness compared with synthetic auxins (Hosta): far more effective than the synthetic auxins; root formation compared with IAA, napthaleneacetic acid and indolebutyric acid [4]: more profuse roots in a much shorter time and at significantly lower concentrations; fold more effective than IAA and the synthetic auxins [5]: 1,000 fold; healing of wound by callus formation (hardwood trees): healed rapidly by forming callus tissue over the wound
O=C(O)Cc1cccc2ccccc12 [NAA, napthaleneacetic acid] | – | 8 | 5 | 9 | 7 | 8 | 2 | 0.06 | 0.15 | 0.85 | 0.60 | 0.20 | –
